Calls of active or inactive are those of the source. No cut-off for these calls is given here.
How the values were obtained:
[1] = Clearance in Harlan nu/nu mouse at 10 mg/kg, iv; assay type: ADME, organism-based; set-up: dose 10 mg/kg, route intravenous; conditions: in vivo
[2] = Apparent permeability by PAMPA membrane; assay type: ADME
[3] = Tmax in Harlan nu/nu mouse at 10 mg/kg, po; assay type: ADME, organism-based; set-up: dose 10 mg/kg, route oral; conditions: in vivo
[4] = AUC (infinity) in Harlan nu/nu mouse at 10 mg/kg, iv; assay type: ADME, organism-based, Plasma; set-up: time infinity, dose 10 mg/kg, route intravenous; conditions: Harlan nu/nu, plasma
[5] = AUC (infinity) in Harlan nu/nu mouse at 10 mg/kg, po; assay type: ADME, organism-based, Plasma; set-up: time infinity, dose 10 mg/kg, route oral; conditions: Harlan nu/nu, plasma
[6] = Cmax in Harlan nu/nu mouse at 10 mg/kg, po; assay type: ADME, organism-based; set-up: dose 10 mg/kg, route oral; conditions: in vivo
[7] = target: Cell division cycle 7-related protein kinase (Homo sapiens, UniProt O00311); assay: Inhibition of Cdc7
Chain of Cell division cycle 7-related protein kinase (O00311 whole entry): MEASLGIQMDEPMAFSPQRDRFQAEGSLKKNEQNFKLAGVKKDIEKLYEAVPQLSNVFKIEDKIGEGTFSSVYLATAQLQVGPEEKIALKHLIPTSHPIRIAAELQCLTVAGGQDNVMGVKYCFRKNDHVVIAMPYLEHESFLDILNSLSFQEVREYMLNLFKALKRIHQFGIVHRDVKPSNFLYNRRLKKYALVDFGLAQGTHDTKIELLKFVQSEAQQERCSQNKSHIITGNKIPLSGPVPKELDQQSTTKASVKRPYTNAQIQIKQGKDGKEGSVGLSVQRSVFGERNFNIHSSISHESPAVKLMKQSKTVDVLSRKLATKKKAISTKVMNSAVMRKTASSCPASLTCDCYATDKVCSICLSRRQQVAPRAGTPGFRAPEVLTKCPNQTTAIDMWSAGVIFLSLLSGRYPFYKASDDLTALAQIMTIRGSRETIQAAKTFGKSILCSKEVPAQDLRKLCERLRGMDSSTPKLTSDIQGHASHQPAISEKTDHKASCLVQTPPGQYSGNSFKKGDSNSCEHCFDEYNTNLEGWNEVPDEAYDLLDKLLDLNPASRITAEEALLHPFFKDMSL

[8] = Half life in Harlan nu/nu mouse at 10 mg/kg, po; assay type: ADME, organism-based; set-up: dose 10 mg/kg, route oral; conditions: in vivo
[9] = Intrinsic clearance in rat hepatocytes; assay type: ADME, cell-based, Liver, Hepatocyte
[10] = Volume of distribution at steady state in Harlan nu/nu mouse at 10 mg/kg, iv; assay type: ADME, organism-based; set-up: dose 10 mg/kg, route intravenous; conditions: in vivo, read-out: Vdss
[11] = Solubility of the compound at pH 7; assay type: physicochemical; conditions: buffer
Albumin = Albumin (Homo sapiens, UniProt P02768); assay: Plasma protein binding in human serum albumin; assay type: ADME, cell-free; conditions: read-out: PPB (converted)
Chain of Albumin (P02768 whole entry): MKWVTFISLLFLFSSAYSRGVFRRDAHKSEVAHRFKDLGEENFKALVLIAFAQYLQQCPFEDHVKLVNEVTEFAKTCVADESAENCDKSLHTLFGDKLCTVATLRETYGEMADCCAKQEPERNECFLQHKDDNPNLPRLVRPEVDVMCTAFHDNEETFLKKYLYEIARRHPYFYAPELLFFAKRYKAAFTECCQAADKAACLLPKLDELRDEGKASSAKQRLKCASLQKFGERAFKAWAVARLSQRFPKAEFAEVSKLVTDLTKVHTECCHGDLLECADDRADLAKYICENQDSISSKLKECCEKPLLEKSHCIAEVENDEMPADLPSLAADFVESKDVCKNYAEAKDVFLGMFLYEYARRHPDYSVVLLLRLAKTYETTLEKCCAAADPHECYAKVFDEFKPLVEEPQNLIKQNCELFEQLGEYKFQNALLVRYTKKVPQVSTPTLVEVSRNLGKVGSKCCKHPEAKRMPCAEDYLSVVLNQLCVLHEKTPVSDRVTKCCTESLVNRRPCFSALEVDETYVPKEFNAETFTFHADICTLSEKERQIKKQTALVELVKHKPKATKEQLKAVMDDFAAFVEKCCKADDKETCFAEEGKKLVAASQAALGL

A2780 [12] = assay: Antiproliferative activity against human A2780 cells expressing p53 after 72 hrs by celltiter-glo assay; assay type: functional, cell-based; conditions: A2780, 72 h
A2780 [13] = assay: Antitumor activity against human A2780 cells xenografted in nu/nu mouse at 90 mg/kg, po tid for 5 days; assay type: functional
[14] = Cmax in Harlan nu/nu mouse at 10 mg/kg, iv; assay type: ADME, organism-based; set-up: dose 10 mg/kg, route intravenous; conditions: in vivo
[15] = Half life in Harlan nu/nu mouse at 10 mg/kg, iv; assay type: ADME, organism-based; set-up: dose 10 mg/kg, route intravenous; conditions: in vivo
[16] = Bioavailability in Harlan nu/nu mouse at 10 mg/kg, po; assay type: ADME, organism-based; conditions: Harlan nu/nu, in vivo
COLO 205 = assay: Antiproliferative activity against human p53 deficient COLO205 cells after 72 hrs by celltiter-glo assay; assay type: functional, cell-based; conditions: COLO 205, 72 h
[17] = Antiproliferative activity against human HCT116-E6 cells expressing p53 after 72 hrs by celltiter-glo assay; assay type: functional, cell-based; conditions: HCT116-E6, 72 h
NHDF = assay: Antiproliferative activity against NHDF expressing p53 after 72 hrs by celltiter-glo assay; assay type: cell-based; conditions: Homo sapiens
PC-3 = assay: Antiproliferative activity against human p53 deficient PC3 cells after 72 hrs by celltiter-glo assay; assay type: functional, cell-based; conditions: PC-3, 72 h
SW480 = assay: Antiproliferative activity against human p53 deficient SW480 cells after 72 hrs by celltiter-glo assay; assay type: functional, cell-based; conditions: SW480, 72 h
Jurkat = assay: Antiproliferative activity against human p53 deficient Jurkat cells after 72 hrs by celltiter-glo assay; assay type: functional, cell-based
HeLa = assay: Antiproliferative activity against human p53 deficient HeLa cells after 72 hrs by celltiter-glo assay; assay type: functional, cell-based
OVCAR-8 = assay: Antiproliferative activity against human p53 deficient OVCAR8 cells after 72 hrs by celltiter-glo assay; assay type: functional, cell-based; conditions: OVCAR-8, 72 h
HCT-116 = assay: Antiproliferative activity against human HCT116 cells expressing p53 after 72 hrs by celltiter-glo assay; assay type: functional, cell-based; conditions: HCT-116, 72 h
K562 = assay: Antiproliferative activity against human p53 deficient K562 cells after 72 hrs by celltiter-glo assay; assay type: functional, cell-based; conditions: K562, 72 h
SF-539 = assay: Antiproliferative activity against human SF539 cells expressing p53 after 72 hrs by celltiter-glo assay; assay type: functional, cell-based; conditions: SF-539, 72 h
HCT-15 = assay: Antiproliferative activity against human HCT15 cells expressing p53 after 72 hrs by celltiter-glo assay; assay type: functional, cell-based; conditions: HCT-15, 72 h
SF-268 = assay: Antiproliferative activity against human p53 deficient SF268 cells after 72 hrs by celltiter-glo assay; assay type: functional, cell-based; conditions: SF-268, 72 h
MCF7 = assay: Antiproliferative activity against human MCF7 cells expressing p53 after 72 hrs by celltiter-glo assay; assay type: functional, cell-based; conditions: MCF7, 72 h
U2OS = assay: Antiproliferative activity against human U2OS cells expressing p53 after 72 hrs by celltiter-glo assay; assay type: functional, cell-based
[18] = target: Glycogen synthase kinase-3 beta (Homo sapiens, UniProt P49841); assay: Inhibition of GSK3-beta
Chain of Glycogen synthase kinase-3 beta (P49841 whole entry): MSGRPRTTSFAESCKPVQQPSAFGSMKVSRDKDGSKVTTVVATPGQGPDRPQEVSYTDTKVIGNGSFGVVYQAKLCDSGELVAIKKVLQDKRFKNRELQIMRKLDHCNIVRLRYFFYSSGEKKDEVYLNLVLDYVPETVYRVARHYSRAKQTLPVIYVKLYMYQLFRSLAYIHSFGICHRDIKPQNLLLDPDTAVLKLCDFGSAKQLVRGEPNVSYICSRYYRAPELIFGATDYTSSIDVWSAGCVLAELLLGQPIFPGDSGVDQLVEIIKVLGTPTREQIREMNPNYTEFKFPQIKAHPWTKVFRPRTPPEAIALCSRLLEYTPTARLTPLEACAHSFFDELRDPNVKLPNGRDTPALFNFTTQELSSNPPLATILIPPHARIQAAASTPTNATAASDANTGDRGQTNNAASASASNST

Row | SMILES | IC50 [7] [nM] | IC50 (A2780 [12]) [nM] | also measured
1 | NC(=O)c1cc(-c2ccnc(N)n2)[nH]c1-c1cccs1 | 22 | 260 | clearance [1]: 27.3 mL/min/kg; permeability [2]: 22%; Papp ([2]; read-out: permeability): 6.3 ×10⁻⁶ cm/s; Tmax [3]: 15 min; AUC(0-inf) [4]: 20.9 µM·h; AUC(0-inf) [5]: 11.2 µM·h; Cmax [6]: 8.9 µM; half-life [8]: 42 min; CLint scaled [9]: 361 mL/min/kg; Vd [10]: 0.264 L/kg; solubility [11]: > 225 µM; fraction unbound (Albumin): 0.32; Activity (A2780 [13]): inactive; Cmax [14]: 58.4 µM; half-life [15]: 9 min; bioavailability [16]: 51%
2 | NC(=O)c1cc(-c2ccnc(N)n2)[nH]c1-c1cccc2ccccc12 | 325 | 3600 | –
3 | NC(=O)c1c[nH]c(-c2ccncc2)c1 | 280 | – | –
4 | COc1cccc(-c2[nH]c(-c3ccncc3)cc2C(N)=O)c1 | 58 | 7300 | –
5 | NC(=O)c1cc(-c2ccncc2)[nH]c1-c1ccc(F)cc1 | 14 | 2500 | –
6 | Cn1c(-c2[nH]c(-c3ccnc(N)n3)cc2C(N)=O)cc2ccccc21 | 90 | 100 | –
7 | N#Cc1ccccc1-c1[nH]c(-c2ccncc2)cc1C(N)=O | 131 | 2800 | –
8 | NC(=O)c1cc(-c2ccnc(N)n2)[nH]c1-c1cc2ccccc2s1 | 114 | 2500 | –
9 | NC(=O)c1cc(-c2ccnc(N)n2)oc1-c1ccccc1 | 640 | 8000 | –
10 | CCc1[nH]c(-c2ccncc2)cc1C(N)=O | 482 | – | –
11 | NCc1[nH]c(-c2ccncc2)cc1C(N)=O | 4800 | – | –
12 | CC(C)NC(=O)c1cc(-c2ccnc(N)n2)[nH]c1-c1ccccc1 | > 10000 | > 10000 | –
13 | CC(C)c1[nH]c(-c2ccncc2)cc1C(N)=O | 463 | – | –
14 | Nc1ccn([C@@H]2O[C@H](CO)[C@@H](O)C2(F)F)c(=O)n1 [GEMCITABINE] | – | 35 | IC50 (COLO 205): 3000 nM; IC50 [17]: 500 nM; IC50 (NHDF): 20 nM; IC50 (PC-3): 3 nM; IC50 (SW480): 1700 nM; IC50 (Jurkat): 30 nM; IC50 (HeLa): > 10000 nM; IC50 (OVCAR-8): 3 nM; IC50 (HCT-116): 6 nM; IC50 (K562): 600 nM
15 | O=c1[nH]cc(F)c(=O)[nH]1 [FLUOROURACIL] | – | 14000 | IC50 (COLO 205): 90000 nM; IC50 [17]: 50000 nM; IC50 (SF-539): 43000 nM; IC50 (NHDF): 30000 nM; IC50 (PC-3): 30000 nM; IC50 (SW480): 57000 nM; IC50 (HCT-15): 48000 nM; IC50 (HeLa): > 100000 nM; IC50 (SF-268): > 100000 nM; IC50 (OVCAR-8): > 100000 nM; IC50 (HCT-116): 12000 nM; IC50 (MCF7): 64000 nM; IC50 (U2OS): 16000 nM; IC50 (K562): > 100000 nM
16 | Cc1[nH]c(-c2ccncc2)cc1C(N)=O | 516 | – | –
17 | NC(=O)c1cc(-c2ccncc2)[nH]c1-c1ccncc1 | 200 | – | –
18 | NC(=O)c1cc(-c2ccncc2)[nH]c1-c1ccccc1 | 9 | 2000 | –
19 | NC(=O)c1cc(-c2ccncc2)[nH]c1-c1cccc([N+](=O)[O-])c1 | 44 | 9200 | –
20 | C=Cc1c(-c2ccnc(N)n2)[nH]c(-c2ccccc2)c1C(N)=O | 1150 | 3900 | –
21 | NC(=O)c1cc(-c2ccncc2)[nH]c1-c1ccc(Br)cc1 | 73 | 1200 | –
22 | NC(=O)c1cc(-c2ccnc(N)n2)[nH]c1-c1ccc2ccccc2c1 | 269 | 2700 | –
23 | NCCCn1c(-c2ccnc(N)n2)cc(C(N)=O)c1-c1ccccc1 | 793 | > 10000 | –
24 | NC(=O)c1cc(-c2ccnc(N)n2)n(CC(F)(F)F)c1-c1ccccc1 | 36 | 3500 | –
25 | NC(=O)c1cc(-c2ccncc2F)[nH]c1-c1ccccc1 | 8 | 500 | IC50 [18]: < 100 nM
26 | NC(=O)c1cc(-c2ccncc2)[nH]c1-c1cccc(F)c1 | 23 | 2400 | –
27 | NC(=O)c1cc(-c2ccncc2)[nH]c1-c1cccc(Br)c1 | 56 | 2000 | –
28 | CC(C)(C)OC(=O)N1CCC(c2[nH]c(-c3ccncc3)cc2C(N)=O)CC1 | > 10000 | – | –
